From paper PMC3290551, “Core Site-Moiety Maps Reveal Inhibitors and Binding Mechanisms of Orthologous Proteins by Screening Compound Libraries” (PLoS ONE, 2012) come the findings set out here.

Common to all, as to type: biochemical
Test [1] addresses T1, M. tuberculosis shikimate kinase (MtSK) (Mycobacterium tuberculosis, UniProt P9WPY3).
T1 construct: His6 (N); made in house; host or cells: E. coli BL-21 (DE3)
Put plainly: Analysis of inhibitor kinetics / inhibitor modality (MtSK). The conditions noted are these: for Inhibitor modality with respect to ATP / Inhibitor modality with respect to shikimate: MtSK; for Ki: SK species: Mt. As to the method: (§1) Shikimate kinase activity was determined by coupling the release of ADP from the SK-catalyzed reaction to the oxidation of NADH using pyruvate kinase (EC 2.7.1.40) and lactate dehydrogenase (EC 1.1.1.27) as coupling enzymes. Shikimate-dependent oxidation of NADH was measured by monitoring the decrease in A340 (ε = 6,200 M^−1 cm^−1). The assay was carried out at 25°C in a mixture of 100 mM Tris-HCl buffer, pH 7.5, 50 mM KCl, 5 mM MgCl2, 1.6 mM shikimic acid, 2.5 mM ATP, 1 mM phosphoenolpyruvate (PEP), 0.1 mM NADH, 2.5 units of pyruvate kinase per ml, and 2.7 units of lactate dehydrogenase per ml. All assays were conducted in a 96-well microplate and analyzed with a spectrophotometer (FLUOstar OPTIMA, BMG LABTECH).
(§2) After the preliminary screening, the inhibitor modality was determined by measuring the effects of inhibitor concentrations on the enzymatic activity as a function of substrate concentration. In the inhibition experiment in which the ATP concentration was fixed at 2.5 mM, shikimate was a varied substrate (0.06, 0.12, 0.24, 0.48, and 0.96 mM) when the concentration of inhibitor was varied from 0 to 50 µM. In parallel, in the inhibition experiment in which the shikimate concentration was fixed at 1.6 mM, ATP was a varied substrate (0.06, 0.12, 0.24, 0.48, and 0.96 mM) when the concentration of inhibitor was varied from 0 to 50 µM. A nonlinear least square-fitting algorithm was applied to the absorbance data to determine the kinetic mechanism data.

Test [2] addresses T2, H. pylori shikimate kinase (HpSK) (Helicobacter pylori, UniProt P56073).
T2 construct: made in house; host or cells: Escherichia coli (stated for the mutants, which followed the wild-type procedure)
Put plainly: Analysis of inhibitor kinetics / inhibitor modality (HpSK). Conditions: for Inhibitor modality with respect to ATP / Inhibitor modality with respect to shikimate: HpSK; for Ki: SK species: Hp. As to the method:
as §1, §2

Test [3] addresses T1, M. tuberculosis shikimate kinase (MtSK). The test is described as follows: Shikimate kinase coupled enzyme inhibition assay (MtSK). The conditions noted are these: for Inhibitory effect against shikimate kinase (in words): MtSK; for IC50: SK species: Mt, 1.6 mM shikimic acid, 2.5 mM ATP, 25°C, pH 7.5.
The target of test [4] is T2, H. pylori shikimate kinase (HpSK). Put plainly: Shikimate kinase coupled enzyme inhibition assay (HpSK). Conditions: for Inhibitory effect against shikimate kinase (in words): HpSK; for IC50: 1.6 mM shikimic acid, 2.5 mM ATP, 25°C, pH 7.5.
Setting [5] is: ATP varied, shikimate fixed at 1.6 mM, read-out: αKi, ATP.
Setting [6] is: shikimate varied, ATP fixed at 2.5 mM, read-out: αKi, SKM.

“And” between values parts separate entries of the source, which are not always exact repeats. Equal values may be shown once. Read-outs that look alike come from different tables or passages of the source. Where only a bound is given, the exact number is not on record here.

T1 sequence (P9WPY3 whole entry): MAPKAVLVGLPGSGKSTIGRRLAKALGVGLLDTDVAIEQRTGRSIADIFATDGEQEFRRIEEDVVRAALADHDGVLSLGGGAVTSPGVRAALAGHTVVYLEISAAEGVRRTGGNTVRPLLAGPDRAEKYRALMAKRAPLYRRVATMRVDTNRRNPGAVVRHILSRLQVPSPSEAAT
T2 sequence (P56073 whole entry): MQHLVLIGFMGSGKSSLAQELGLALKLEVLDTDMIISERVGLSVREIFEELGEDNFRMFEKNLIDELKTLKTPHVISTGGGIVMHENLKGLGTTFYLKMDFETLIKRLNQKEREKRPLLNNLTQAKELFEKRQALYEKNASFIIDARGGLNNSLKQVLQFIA

As for `Nc1ccc2c(O)c(N=Nc3ccc4c(O)cc(S(=O)(=O)O)cc4c3)c(S(=O)(=O)O)cc2c1` [NSC162535], the “Inhibitor modality with respect to ATP” value in test [1] and in test [2] was “competitive inhibitors of ATP” each time. In addition, the “Inhibitor modality with respect to shikimate” value in test [1] and in test [2] was “competed with shikimate” in each case. The Ki came to 0.2 µM in test [1] (setting [5]); 0.6 µM in test [1] (setting [6]); 1.9 µM in test [2] (read-out: αKi, ATP, ATP varied, shikimate fixed at 1.6 mM); 1.8 µM in test [2] (read-out: αKi, SKM, shikimate varied, ATP fixed at 2.5 mM).

The term IC50 denotes the concentration that inhibits the measured activity by half. Low values mean greater potency in that assay, high ones weaker potency in that assay. In the case of `O=C1Nc2ccc(I)cc2/C1=C/c1cc(Br)c(O)c(Br)c1` [GW5074, reference compound], the “Inhibitory effect against shikimate kinase (in words)” value (shortened to “Inhibitory effect”) in test [3] and in test [4] was “showed inhibitory effects” each time. The IC50 came out at 29.6 µM in test [3] and 31.4 µM in test [4] (IC50, SK species: Hp).

On to `O=C(NNC(=O)C1c2ccccc2Oc2ccccc21)c1cccc([N+](=O)[O-])c1` [RH00037], for which the IC50 in test [3] is less than 100 µM; in test [4] (IC50, SK species: Hp), 23.8 µM.

Take `O=C(Nc1ccc(C(=O)Nc2ccc3c(O)cc(S(=O)(=O)O)cc3c2)cc1)c1ccccc1` [NSC37215]: the “Inhibitory effect” value in test [3] and in test [4] was “lost the inhibitory” throughout. Also, the IC50 in test [3] was greater than 100 µM; in test [4] (IC50, SK species: Hp) it was greater than 100 µM.

Take `O=S(=O)(O)c1cc(O)c2c(O)c(N=Nc3cccc4ccccc34)c(S(=O)(=O)O)cc2c1` [NSC45208]: the “Inhibitory effect” value in test [3] and in test [4] was “lost the inhibitory” each time. In addition, the IC50 in test [3] is greater than 100 µM; in test [4] (IC50, SK species: Hp) it was greater than 100 µM.

With `Nc1ccc2c(O)c(/N=N/c3ccc([N+](=O)[O-])cc3)c(S(=O)(=O)O)cc2c1` [NSC45547], in test [4] (SK species: Hp), the half-inhibitory concentration (IC50) was ≤ 10 µM and 7.8 µM.

In the case of `Cc1cc(N=Nc2ccc(N=Nc3ccc(N=Nc4ccc(O)c(C(=O)O)c4)cc3)c(S(=O)(=O)O)c2C)c(N)cc1N` [NSC45611], the IC50 is ≤ 10 µM and 1.5 µM in test [3]; ≤ 10 µM and 4.8 µM in test [4] (IC50, SK species: Hp). For the same compound, the “Inhibitor modality with respect to ATP” value in test [1] and in test [2] was “competitive inhibitors of ATP” in each case. Further, the “Inhibitor modality with respect to shikimate” value in test [1] and in test [2] was “competed with shikimate” in each case. The Ki was determined as 0.3 µM in test [1] (setting [5]); 0.7 µM in test [1] (setting [6]); 1.1 µM in test [2] (αKi, ATP, ATP varied, shikimate fixed at 1.6 mM); 1.7 µM in test [2] (αKi, SKM, shikimate varied, ATP fixed at 2.5 mM).

In the case of `O=C(Nc1ccc2c(O)cc(S(=O)(=O)O)cc2c1)Nc1ccc2c(O)cc(S(=O)(=O)O)cc2c1` [NSC45174], the IC50 in test [3] is ≤ 10 µM and 2.8 µM; in test [4] (IC50, SK species: Hp), ≤ 10 µM and 7.8 µM.

With `O=C(Nc1ccc2c(O)c(/N=N/c3ccc4c(O)cc(S(=O)(=O)O)cc4c3)c(S(=O)(=O)O)cc2c1)c1ccccc1` [NSC45609], in test [4] (SK species: Hp), the IC50 is ≤ 10 µM and 7 µM.

For the compound `O=C(NNC(=O)C1c2ccccc2Oc2ccccc21)c1cccc(F)c1` [RH00016], the IC50 was less than 100 µM in test [3] and 40.2 µM in test [4] (IC50, SK species: Hp).

Turning to `N=C(NO)c1ccc(Oc2cc(Cl)cc(Cl)c2)c([N+](=O)[O-])c1` [SPB01099], the IC50 in test [3] and in test [4] (SK species: Hp) was less than 100 µM each time.
